Values quoted from earlier work, collected in patent US20160303051A1, “Burst Drug Release Compositions” (Wyeth LLC, priority 2009, published 2016).

- solubility (BCS): low solubility
Structure (SMILES): CC(C)Cc1ccc(C(C)C(=O)O)cc1 (stereo not shown) [Ibuprofen, ibuprofen]
